The values below come from PubChem BioAssay (NCI).

Some test systems named below: HCT-116 colon; SF-295 CNS; HL-60(TB) leukemia; PC-3 prostate; COLO 205 colon; HOP-92 NSCLC; SW-620 colon; K-562 leukemia; UO-31 renal; MDA-MB-231 breast.
Test in all cases: inhibition of tumour cell growth, NCI panel, 48 h

SMILES strings stand for the structures.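 Cells were grown in 96-well plates and exposed to each compound for 48 hours at five concentrations; endpoints were interpolated linearly between bracketing concentrations, or set to the highest concentration if not reached. GI50 = concentration required for 50% inhibition of growth. The concentration for full growth arrest is given as TGI.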

As for `Cn1c2ccccc2c(=O)c2ccc(Cl)cc21`, the TGI in the assay on HCT-116 colon, in the assay on SF-295 CNS, in the assay on HL-60(TB) leukemia, in the assay on PC-3 prostate, in the assay with COLO 205 colon and in the assay on HOP-92 NSCLC was over 10 µM each time. Also, the TGI with SW-620 colon and with K-562 leukemia was over 10 µM each time.

As to `C=C1CCC(CC[C@@H]2CC[C@]3(OC2)O[C@@]2(O)CC[C@]3(C)OC2(C)C)C(C)(C)[C@H]1C/C=C1/C(=O)OC[C@@H]1O` (stereo not given in full), the TGI came to 4.89 µM with HCT-116 colon; 10.5 µM in the assay on SF-295 CNS; 10.7 µM with PC-3 prostate; 9.33 µM in the assay on UO-31 renal; 16.3 µM in the assay with COLO 205 colon; 6.51 µM in the assay on HOP-92 NSCLC. The TGI stood at 12.6 µM in the assay on SW-620 colon, 3.72 µM in the assay with MDA-MB-231 breast and 2.38 µM in the assay with K-562 leukemia.

With `CN(C)CCN1C(=O)c2ccc3c4c(ccc(c24)C1=O)C(=O)N(CCN=C=S)C3=O`, the GI50 in the assay with HCT-116 colon is 0.027 µM; in the assay with SF-295 CNS, 0.122 µM; in the assay with PC-3 prostate, 0.0513 µM; in the assay on UO-31 renal, 0.0281 µM; in the assay on COLO 205 colon it was 0.0254 µM; with HOP-92 NSCLC, 0.0262 µM. Moreover, the GI50 in the assay with SW-620 colon is 0.0269 µM; with MDA-MB-231 breast, 0.0942 µM. In addition, the TGI in the assay with HCT-116 colon turned out to be 0.134 µM; with SF-295 CNS it was 0.513 µM; in the assay on PC-3 prostate it was 0.667 µM; with UO-31 renal, 0.157 µM; in the assay with COLO 205 colon, 0.0922 µM; in the assay on HOP-92 NSCLC, 0.174 µM. Moreover, the TGI with SW-620 colon is 0.155 µM; in the assay on MDA-MB-231 breast it was 0.352 µM.

Turning to `COc1ccc(C(=O)COc2ccc(/C=C3\COc4ccc(OC)cc4C3=O)cc2)cc1`, the GI50 was 11.1 µM in the assay with HCT-116 colon; 14.5 µM with SF-295 CNS; 11 µM in the assay on HL-60(TB) leukemia; 12.8 µM in the assay with PC-3 prostate; 18.4 µM in the assay with UO-31 renal; 51.8 µM with COLO 205 colon. For the same compound, the figures for the GI50 in the assay with SW-620 colon, in the assay on MDA-MB-231 breast and in the assay on K-562 leukemia were 4.99 µM, 30 µM and 4.09 µM, respectively. Moreover, the TGI with HCT-116 colon is 31.1 µM; in the assay with SF-295 CNS it was 38.1 µM; in the assay with HL-60(TB) leukemia, 62.8 µM; with PC-3 prostate it was 47.1 µM; with UO-31 renal, 61.5 µM; in the assay with COLO 205 colon, over 100 µM. The TGI was over 100 µM in the assay with SW-620 colon, 92.5 µM in the assay on MDA-MB-231 breast and 61.2 µM with K-562 leukemia.

As to `C#Cc1c(I)n(C2OC(CO[Si](C)(C)C(C)(C)C)C3OC(C)(C)OC32)c(=O)[nH]c1=O` (stereo not given), the GI50 is 2.78 µM in the assay with HCT-116 colon; 28.4 µM in the assay with SF-295 CNS; 1.72 µM in the assay on PC-3 prostate; 1.99 µM in the assay on UO-31 renal; 2.24 µM with COLO 205 colon; 12.4 µM with HOP-92 NSCLC. Further, the GI50 in the assay on SW-620 colon is 2.36 µM; in the assay on MDA-MB-231 breast, 5.24 µM; with K-562 leukemia it was 2.08 µM. Further, the TGI in the assay on HCT-116 colon turned out to be 10.1 µM; with SF-295 CNS, 98.7 µM; in the assay with PC-3 prostate it was 4.27 µM; in the assay with UO-31 renal, 5.49 µM; with COLO 205 colon, 4.8 µM; with HOP-92 NSCLC, 26.1 µM. Further, the figures for the TGI with SW-620 colon, in the assay on MDA-MB-231 breast and with K-562 leukemia were 6.42 µM, 19.9 µM and 5.37 µM, respectively.

As to `COc1ccc(CCN2COc3c([C@@H](C)CCC=C(C)C)ccc(C)c3C2)cc1OC`, the GI50 in the assay with HCT-116 colon was 2.17 µM; in the assay with SF-295 CNS, 2.02 µM; in the assay with HL-60(TB) leukemia it was 4.11 µM; with PC-3 prostate, 1.95 µM; in the assay with UO-31 renal, 2.45 µM; in the assay on COLO 205 colon, 1.79 µM. In addition, the results for the GI50 in the assay on SW-620 colon, in the assay with MDA-MB-231 breast and with K-562 leukemia were 1.91 µM, 2.76 µM and 3.7 µM, respectively. For the same compound, the TGI in the assay with HCT-116 colon amounted to 4.94 µM; with SF-295 CNS, 6.56 µM; with HL-60(TB) leukemia, 60.9 µM; with PC-3 prostate it was 5.83 µM; in the assay on UO-31 renal, 12.3 µM; in the assay on COLO 205 colon, 3.19 µM. In addition, the TGI with SW-620 colon was found to be 4.08 µM; with MDA-MB-231 breast, 9.37 µM; in the assay with K-562 leukemia, 93.5 µM.

Turning to `Nc1ccc(-c2nc3ccc(Cc4ccc5nc(-c6ccc(N)cc6)[nH]c5c4)cc3[nH]2)cc1`, the GI50 in the assay on SF-295 CNS was 12.8 µM; in the assay on HL-60(TB) leukemia it was 10.4 µM; with PC-3 prostate, 4.25 µM; in the assay with UO-31 renal, 45.4 µM; in the assay on COLO 205 colon, 1.65 µM; with HOP-92 NSCLC it was 16.5 µM. Further, the GI50 was 1.8 µM in the assay on SW-620 colon and 2.14 µM with MDA-MB-231 breast. Further, the TGI is 32.4 µM in the assay on SF-295 CNS; 36.9 µM in the assay on HL-60(TB) leukemia; 20.1 µM with PC-3 prostate; over 100 µM in the assay on UO-31 renal; 3.2 µM with COLO 205 colon; 39 µM with HOP-92 NSCLC. In addition, the TGI in the assay with SW-620 colon was found to be 3.46 µM; in the assay on MDA-MB-231 breast, 5.18 µM.

Consider `COc1cccc(C#Cc2ccccc2C#CCCCCO)c1`, for which the GI50 in the assay with HCT-116 colon was 12.2 µM; in the assay with SF-295 CNS it was 7.94 µM; in the assay with PC-3 prostate, 9.83 µM; in the assay with UO-31 renal it was 8.79 µM; with COLO 205 colon it was 17.9 µM; in the assay with HOP-92 NSCLC, 2.49 µM. Further, the GI50 was 17.5 µM in the assay on SW-620 colon, 3.41 µM in the assay on MDA-MB-231 breast and 1.84 µM in the assay with K-562 leukemia. In addition, the TGI worked out at 26.4 µM in the assay on HCT-116 colon; 22.1 µM in the assay on SF-295 CNS; 23.7 µM with PC-3 prostate; 22.3 µM in the assay on UO-31 renal; 36.2 µM in the assay with COLO 205 colon; 21.7 µM in the assay on HOP-92 NSCLC. Besides, the TGI with SW-620 colon stood at 35.9 µM; with MDA-MB-231 breast, 13.2 µM; in the assay with K-562 leukemia, 85.4 µM.

For the compound `O=C1CC2c3ccccc3CCC2c2ccccc21` (stereo not given), the TGI in the assay on HCT-116 colon was 42.1 µM; in the assay with SF-295 CNS, 49.7 µM; in the assay with HL-60(TB) leukemia, over 100 µM; in the assay on PC-3 prostate it was 90.6 µM; in the assay with UO-31 renal it was 50.8 µM; in the assay on COLO 205 colon, 11.2 µM. For the same compound, the TGI in the assay on SW-620 colon is over 100 µM; in the assay on MDA-MB-231 breast, 80 µM; with K-562 leukemia it was over 100 µM.
